Measured values taken from paper PMC11426533 (PLOS Pathogens, 2024).

How the values were obtained:
[1] = biological target: T1, ChiB (Clostridium perfringens, UniProt F8UNI4)
T1 construct: gene CP4_3454

[2] = biological target: T2, ChiA (N-terminally trimmed version) (Clostridium perfringens, UniProt F8UNI5)
T2 construct: gene CP4_3455

[3] = biological target: T2, ChiA (N-terminally trimmed version); remark: listed apart in the source

T2 sequence (F8UNI5 46-611 limits assumed): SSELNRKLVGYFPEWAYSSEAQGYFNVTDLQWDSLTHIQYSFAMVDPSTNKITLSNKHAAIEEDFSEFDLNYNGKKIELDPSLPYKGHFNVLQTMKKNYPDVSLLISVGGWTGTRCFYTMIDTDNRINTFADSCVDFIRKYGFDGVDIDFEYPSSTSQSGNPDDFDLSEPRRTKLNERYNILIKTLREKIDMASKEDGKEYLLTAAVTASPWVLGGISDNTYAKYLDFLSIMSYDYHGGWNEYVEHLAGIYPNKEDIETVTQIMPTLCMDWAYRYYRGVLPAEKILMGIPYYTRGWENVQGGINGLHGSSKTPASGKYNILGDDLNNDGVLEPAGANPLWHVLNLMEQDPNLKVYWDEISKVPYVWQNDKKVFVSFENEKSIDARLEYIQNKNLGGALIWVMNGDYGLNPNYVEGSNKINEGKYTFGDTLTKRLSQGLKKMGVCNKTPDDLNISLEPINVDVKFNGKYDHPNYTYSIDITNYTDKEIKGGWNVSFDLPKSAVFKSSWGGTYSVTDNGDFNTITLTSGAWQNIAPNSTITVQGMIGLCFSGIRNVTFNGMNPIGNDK
T1 sequence (F8UNI4 1-599): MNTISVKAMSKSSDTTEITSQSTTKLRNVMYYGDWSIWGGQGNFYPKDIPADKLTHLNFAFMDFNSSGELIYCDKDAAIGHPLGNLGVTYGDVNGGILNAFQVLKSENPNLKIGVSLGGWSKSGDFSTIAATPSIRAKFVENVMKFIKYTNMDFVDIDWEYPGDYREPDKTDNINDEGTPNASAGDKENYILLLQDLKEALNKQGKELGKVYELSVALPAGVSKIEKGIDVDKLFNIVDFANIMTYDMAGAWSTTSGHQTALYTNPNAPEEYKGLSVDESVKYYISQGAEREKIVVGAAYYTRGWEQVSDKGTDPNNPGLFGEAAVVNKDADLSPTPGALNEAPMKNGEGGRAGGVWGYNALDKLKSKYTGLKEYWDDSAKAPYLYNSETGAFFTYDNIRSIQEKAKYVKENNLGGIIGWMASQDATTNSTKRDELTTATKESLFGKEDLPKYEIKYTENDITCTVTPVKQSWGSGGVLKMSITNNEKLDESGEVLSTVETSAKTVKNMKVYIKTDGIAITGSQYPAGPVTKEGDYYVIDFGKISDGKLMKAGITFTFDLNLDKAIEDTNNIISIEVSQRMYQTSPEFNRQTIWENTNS

Cn1cnc2c1c(=O)n(CCCn1c(=O)c3c(ncn3C)n(C)c1=O)c(=O)n2C [Bisdionin C]
X-ray co-crystal structure, 1.85 Å [1]: The crystal of ChiB in complex with the chitinase inhibitor Bisdionin C | X-ray crystal structure by soaking, 1.35 Å [2]: The crystal of ChiA in complex with the chitinase inhibitor Bisdionin C

N[C@H]1[C@H](O[C@H]2[C@H](O)[C@@H](N)[C@H](O[C@H]3[C@H](O)[C@@H](N)[C@H](O[C@H]4[C@H](O)[C@@H](N)[C@H](O[C@H]5[C@H](O)[C@@H](N)[C@H](O[C@H]6[C@H](O)[C@@H](N)C(O)O[C@@H]6CO)O[C@@H]5CO)O[C@@H]4CO)O[C@@H]3CO)O[C@@H]2CO)O[C@H](CO)[C@@H](O)[C@@H]1O (stereo partly drawn) [chitosan hexamer]
X-ray co-crystal structure, 1.30 Å [3]: The crystal of ChiA in complex with the chitinase inhibitor chitosan
